What was measured:
common poppy = assay: Test E common poppy; format: in vivo, Papaver rhoeas; settings: Postemergence
Method in brief: (§1)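 Compound formulated with surfactant in a non-phytotoxic solvent (postemergence: young 1- to 4-leaf plants); held in greenhouse approx. 21–28 days; visual assessment against untreated plants.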

corn = assay: Test C postemergence corn; format: in vivo, Zea mays; settings: 0 to 100 scale, 0 no effect, 100 complete control
Protocol: (§2) Compounds evaluated in this test were formulated in a non-phytotoxic solvent mixture which included a surfactant and applied to plants that were grown for various periods of time before treatment (postemergence application). A mixture of sandy loam soil and greenhouse potting mix in a 60:40 ratio was used for the postemergence test.
(§3) Plantings of these crops and weed species were adjusted to produce plants of appropriate size for the postemergence test. All plant species were grown using normal greenhouse practices. Crop and weed species include arrowleaf sida (Sida rhombifolia), barnyardgrass (Echinochloa crus-galli), cocklebur (Xanthium strumarium), common ragweed (Ambrosia elatior), corn (Zea mays), cotton (Gossypium hirsutum), eastern black nightshade (Solanum ptycanthum), fall panicum (Panicum dichotomiflorum), field bindweed (Convolvulus arvensis), giant foxtail (Setaria faberii), hairy beggarticks (Bidens pilosa), ivyleaf morningglory (Ipomoea hederacea), johnsongrass (Sorghum halepense), ladysthumb smartweed (Polygonum persicaria), lambsquarters (Chenopodium album), large crabgrass (Digitaria sanguinalis), purple nutsedge (Cyperus rotundus), redroot pigweed (Amaranthus retroflexus), soybean (Glycine max), surinam grass (Brachiaria decumbens), velvetleaf (Abutilon theophrasti) and wild poinsettia (Euphorbia heterophylla).
(§4) Treated plants and untreated controls were maintained in a greenhouse for approximately 14, to 21 days, after which all treated plants were compared to untreated controls and visually evaluated. Plant response ratings, summarized in Table C, were based upon a 0 to 100 scale where 0 was no effect and 100 was complete control. A dash response (−) means no test result.

downy brome = assay: Test E downy brome; format: in vivo, Bromus tectorum; settings: Postemergence
Protocol: as §2, with “in the 1- to 4-leaf stage” for “grown for various periods of time before treatment”
(§5) Plantings of these crops and weed species were adjusted to produce plants of appropriate size for the postemergence test. All plant species were grown using normal greenhouse practices. Crop and weed species include annual bluegrass (Poa annua), blackgrass (Alopecurus myosuroides), black nightshade (Solanum nigra), chickweed (Stellaria media), common poppy (Papaver rhoeas), deadnettle (Lamium amplexicaule), downy brome (Bromus tectorum), field violet (Viola arvensis), galium (Galium aparine), green foxtail (Setaria viridis), Italian ryegrass (Lolium multiflorum), jointed goatgrass (Aegilops cylindrica), kochia (Kochia scoparia), lambsquarters (Chenopodium album), littleseed canarygrass (Phalaris minor), rape (Brassica napus), redroot pigweed (Amaranthus retroflexus), Russian thistle (Salsola kali), scentless chamomile (Matricaria inodora), spring barley (Hordeum vulgare), sugar beet (Beta vulgaris), sunflower (Helianthus annuus), ivyleaf speedwell (Veronica hederaefolia), spring wheat (Triticum aestivum), winter wheat (Triticum aestivum), wild buckwheat (Polygonum convolvulus), wild mustard (Sinapis arvensis), wild oat (Avena fatua), windgrass (Apera spica-venti) and winter barley (Hordeum vulgare).
(§6) Treated plants and untreated controls were maintained in a greenhouse for approximately 21 to 28 days, after which all treated plants were compared to untreated controls and visually evaluated. […] A dash response (-) means no test result.

redroot pigweed [1] = assay: Test E redroot pigweed; format: in vivo, Amaranthus retroflexus; settings: Postemergence
Method in brief: as §1

redroot pigweed [2] = assay: Test E redroot pigweed; format: in vivo, Amaranthus retroflexus; settings: Preemergence
jointed goatgrass = assay: Test E jointed goatgrass; format: in vivo, Aegilops cylindrica; settings: Postemergence
Method in brief: as §1

barnyardgrass = assay: Test C postemergence barnyardgrass; format: in vivo, Echinochloa crus-galli; settings: 0 to 100 scale, 0 no effect, 100 complete control
Protocol: as §2, §3, §4

spring barley = assay: Test E spring barley; format: in vivo, Hordeum vulgare; settings: Postemergence
Protocol: as §2, with “in the 1- to 4-leaf stage” for “grown for various periods of time before treatment”
as §5, §6

redroot pigweed [3] = assay: Test C postemergence redroot pigweed; format: in vivo, Amaranthus retroflexus; settings: 0 to 100 scale, 0 no effect, 100 complete control
Protocol: as §2, §3, §4

johnsongrass = assay: Test C postemergence johnsongrass; format: in vivo, Sorghum halepense; settings: 0 to 100 scale, 0 no effect, 100 complete control
Protocol: as §2, §3, §4

[4] = Rate 250 g/ha, 0 to 100 scale where 0 is no effect and 100 is complete control

With `CC(C)N(C(=O)n1oc(=O)n(C)c1=O)c1ccc(F)cc1` [Compound 138] the “Plant response rating, Comnion poppy” value (common poppy; Rate 125 g/ha, 0 to 100 scale) was 20, the “Common poppy plant response rating” value (common poppy; [4]) was 40 and the “Plant response rating, Corn” value (corn; Rate 280 g/ha) was 20. For the same molecule, the “Plant response rating, Corn” value (corn; Rate 560 g/ha) was 50, the “Plant response rating, Corn” value (corn; Rate 1120 g/ha) was 60 and the “Plant response rating, Downy brome” value (downy brome; Rate 125 g/ha, 0 to 100 scale) was 0. The “Downy brome plant response rating” value (downy brome; [4]) was 2, the “Plant response rating, Redroot pigweed” value (redroot pigweed [1]; Rate 125 g/ha, 0 to 100 scale) was 20 and the “Redroot pigweed plant response rating” value (redroot pigweed [1]; [4]) was 10. For the same molecule, the “Plant response rating, Redroot pigweed” value (redroot pigweed [2]; Rate 125 g/ha, 0 to 100 scale (0 no effect, 100 complete control)) was 90, the “Redroot pigweed plant response rating (0 to 100 scale)” value (redroot pigweed [2]; Rate 250 g/ha) was 90 and the “Plant response rating, Jointed goatgra” value (jointed goatgrass; Rate 125 g/ha, 0 to 100 scale) was 0. The “Jointed goatgra plant response rating” value (jointed goatgrass; [4]) was 0, the “Plant response rating, Barnyardgrass” value (barnyardgrass; Rate 140 g/ha) was 40 and the “Plant response rating, Barnyardgrass” value (barnyardgrass; Rate 280 g/ha) was 70. For the same molecule, the “Plant response rating, Barnyardgrass” value (barnyardgrass; Rate 560 g/ha) was 85, the “Plant response rating, Barnyardgrass” value (barnyardgrass; Rate 1120 g/ha) was 85 and the “Plant response rating, Spring Barley” value (spring barley; Rate 125 g/ha, 0 to 100 scale) was 0. The “Spring Barley plant response rating” value (spring barley; [4]) was 5, the “Plant response rating, Redroot pigweed” value (redroot pigweed [3]; Rate 140 g/ha) was 0 and the “Plant response rating, Redroot pigweed” value (redroot pigweed [3]; Rate 280 g/ha) was 10. For the same molecule, the “Plant response rating, Redroot pigweed” value (redroot pigweed [3]; Rate 560 g/ha) was 40, the “Plant response rating, Redroot pigweed” value (redroot pigweed [3]; Rate 1120 g/ha) was 70 and the “Plant response rating, Johnsongrass” value (johnsongrass; Rate 140 g/ha) was 0. For the same molecule, the “Plant response rating, Johnsongrass” value (johnsongrass; Rate 280 g/ha) was 20, the “Plant response rating, Johnsongrass” value (johnsongrass; Rate 560 g/ha) was 60 and the “Plant response rating, Johnsongrass” value (johnsongrass; Rate 1120 g/ha) was 90.

From patent US6737383B1, “Herbicidal oxadiazolidines” (priority 1999, dated 2004)
